Data set [1] in a line: Pharmacokinetic study in rats. Type of data set: in vivo. Particulars: for AUC(0-inf) / Cmax / MRT / Tmax / half-life: in vivo, suspension in 0.5% HPMC K4M. As for the experimental part: The crystal form A of the p-tosylate of the compound was fully suspended in an aqueous solution of 0.5% HPMC (hydroxypropylmethyl cellulose) K4M, and then administered to rats by gavage at a dosage of 10 mg/kg and 30 mg/kg, with three rats in each parallel experiment. The amount of the compound was fully converted into the amount of an equivalent free base.

Data set [2] can be described thus: Pharmacokinetic study in dogs. The data set is classed as in vivo, beagle dogs. On the procedure: The crystal form A of the p-tosylate of the compound was fully suspended in an aqueous solution of 0.5% HPMC (hydroxypropylmethyl cellulose) K4M, and then administered to beagle dogs by gavage at a dosage of 20 mg/kg and a dose volume of 5 mL/kg, with three dogs in each parallel experiment. The amount of the compound was fully converted into the amount of an equivalent free base.

In data set [3] the test system is human chronic myeloid leukemia cell strain KCL22-s. The data set is described as follows: Efficacy on subcutaneous xenograft tumor model of KCL22-s. Particulars: oral, dosing cycle 15 days.
Data set [4] can be described thus: Dynamic vapor sorption experiment. The data set is classed as physicochemical. On the procedure: The crystal form A of the p-tosylate of the compound was placed in saturated water vapor with different relative humidities to reach a dynamic equilibrium between the compound and the water vapor, and the percentage of hygroscopic weight gain of the compound after reaching the equilibrium was calculated.

The nature of data set [5]: Thermodynamical stability experiment (polymorph screening by slurrying, XRPD). Type of data set: physicochemical. On the procedure: An organic solvent with certain solubility was selected, and the crystal form A of the p-tosylate of the compound was suspended in the solvent system. The resulting system was slurried by stirring at room temperature for 2 weeks, and centrifuged. The supernatant was discarded. After the solid was dried under vacuum at 50°C (-0.1 MPa) for 16 h, the XRPD pattern of the solid was measured and compared with the XRPD of the salt of the starting compound.

Assay in data set [6]: as above
Particulars: comparison of DSC patterns of crystal forms A-E. The data set is classed as physicochemical.

The subject of another data set is Ba/F3 BCR-ABL1-G250E. The data set is described as follows: Inhibition of proliferation of BaF3 cells overexpressing BCR-ABL1 mutations (CellTiter-Glo). Type of data set: cell-based, Mouse. Conditions: 72 h. The source says: (§1) The test objective was to evaluate the inhibitory activity of the compounds of the present invention against proliferation of the Ba/F3 BCR-ABL1-T315I, Ba/F3 BCR-ABL1-E255K, Ba/F3 BCR-ABL1-E255V, and Ba/F3 BCR-ABL1-G250E mutation models of mouse primary B cells cultured in vitro.
(§2) CellTiter-Glo® Luminescent Cell Viability Assay was used to detect the inhibitory effect of drugs on tumor cell proliferation and growth. The logarithmic growth phase cells cultured overnight were directly taken, pipetted up and down, mixed and counted, the cell density was adjusted according to different cell density requirements, and the cells were prepared into a cell suspension and plated on a 96-well plate. Drugs at different concentrations were added, 3 replicate wells were set for each concentration, and corresponding vehicle controls were set. The maximum test concentration in Ba/F3 BCR-ABL1-T315I and Ba/F3 BCR-ABL1-E255K cells was 10000 nM, with 3.16-fold gradient dilution and a total of 9 concentrations (10000-1.0058 nM). The maximum concentration of the compounds detected in other cells was 500 nM, with 3.16-fold gradient dilution, and a total of 9 concentrations (500-0.0503 nM). The cells with the compound being added were cultured for another 72 h at 37°C and 5% CO2. The culture plate and its contents were equilibrated to room temperature, the CellTiter-Glo® reagent was added, the contents were mixed on a shaker for 5 min to induce cell lysis, the culture plate was further incubated at room temperature in the dark for 20 min, and the luminescence was read with a microplate reader.

A further data set has as its system Ba/F3 BCR-ABL1-T315I. The description is as above. The data set is classed as cell-based, Mouse. Conditions: 72 h.
Description: as §1, §2

The next data set deals with Ba/F3 BCR-ABL1-E255K. The description is as above. The data set is classed as cell-based, Mouse. Conditions: 72 h.
Description: as §1, §2

For a further data set, the system named is Ba/F3 BCR-ABL1-E255V. The description is as above. Particulars: 72 h. Type of data set: cell-based, Mouse.
Description: as §1, §2

The test system of data set [7] is human peripheral blood basophilic leukemia cells Ku812. The data set is described as follows: Inhibition of proliferation of tumor cell strains carrying BCR-ABL1 fusion mutations (CellTiter-Glo). Type of data set: cell-based. Particulars: 72 h. The source says:
(§3) The test objective was to evaluate the inhibitory activity of the compounds of the present invention against proliferation of human erythroleukemia cells K562, human peripheral blood basophilic leukemia cells Ku812, and human chronic granulocytic leukemia cells KCL22-s and KCL22-r cultured in vitro.
(§4) CellTiter-Glo® Luminescent Cell Viability Assay was used to detect the inhibitory effect of drugs on tumor cell proliferation and growth. The logarithmic growth phase cells cultured overnight were directly taken, pipetted up and down, mixed and counted, the cell density was adjusted according to different cell density requirements, and the cells were prepared into a cell suspension and plated on a 96-well plate. Drugs at different concentrations were added, three replicate wells were set for each concentration, and corresponding solvent controls were set. The maximum concentration of compound detected was 500 nM, with 3-fold gradient dilution, and a total of 9 concentrations (500-0.076 nM). The cells with the compound being added were cultured for another 72 h at 37°C and 5% CO2. The culture plate and its contents were equilibrated to room temperature, the CellTiter-Glo® reagent was added, the contents was mixed on a shaker for 3 min to induce cell lysis, the culture plate was further incubated at room temperature in the dark for 10 min, and the chemiluminescence signal value was determined by a microplate reader (BioTek SynergyH1).

The subject of data set [8] is human chronic granulocytic leukemia cells KCL22-r. The data set is described as above. Conditions: KCL22-r (imatinib-resistant strain), 72 h. The data set is classed as cell-based.
Description: as §3, §4

Data set [9] deals with human chronic granulocytic leukemia cells KCL22-s. The description is as above. Type of data set: cell-based. Conditions: KCL22-s (imatinib-sensitive strain), 72 h.
Description: as §3, §4

For data set [10], the system named is human erythroleukemia cells K562. The description is as above. The data set is classed as cell-based. Particulars: 72 h.
Description: as §3, §4

The target in the next data set is ABL1 WT kinase (Homo sapiens, UniProt P00519). Put plainly: In vitro inhibitory activity against ABL1 WT kinase (capillary electrophoresis, substrate peptide phosphorylation). Particulars: Maximum concentration 1 µM. The data set is classed as biochemical. On the procedure:
Capillary electrophoresis was used to detect the phosphorylation conversion rate of the substrate peptide to determine the IC50 value of the test compound for inhibiting the kinase (ABL1-WT). The maximum concentration of the compound tested in the test was 1000 nM, with 3-fold dilution, and a total of 12 concentrations (1000 - 0.0056 nM). First, an enzyme reaction system (the concentration of enzyme ABL1-WT was 1.3 nM, the concentration of substrate FLPeptide2 was 1.5 µM, and the reaction factor was 10 mM MgCl2) was prepared. After incubation at room temperature for 30 min, 5 µL of 4×ATP solution was added to start the enzyme reaction. After reacting at room temperature for 90 min, the reaction was stopped by adding a stop buffer (containing 0.5 M EDTA). The sample was analyzed using an EZ reader (analysis conditions: pressure -1.5PSI, upper voltage current -2250V, lower voltage current -500V, separation time 40 sec, system delay 100.0 sec).
From the conversion rate read by EZ Reader, the remaining activity was calculated according to the following formula. Remaining Activity (%) = 100% × (CRSample −CRLC)/(CRHC −CRLC) [formula]
IC50 was calculated using XLfit, and IC50 was calculated by Formula 201 as the fitting formula.

The mark [11] stands for this setting: dog, in vivo, po, beagle dogs, gavage 20 mg/kg, suspension in 0.5% HPMC K4M.

ABL1 WT kinase, sequence (P00519 whole entry): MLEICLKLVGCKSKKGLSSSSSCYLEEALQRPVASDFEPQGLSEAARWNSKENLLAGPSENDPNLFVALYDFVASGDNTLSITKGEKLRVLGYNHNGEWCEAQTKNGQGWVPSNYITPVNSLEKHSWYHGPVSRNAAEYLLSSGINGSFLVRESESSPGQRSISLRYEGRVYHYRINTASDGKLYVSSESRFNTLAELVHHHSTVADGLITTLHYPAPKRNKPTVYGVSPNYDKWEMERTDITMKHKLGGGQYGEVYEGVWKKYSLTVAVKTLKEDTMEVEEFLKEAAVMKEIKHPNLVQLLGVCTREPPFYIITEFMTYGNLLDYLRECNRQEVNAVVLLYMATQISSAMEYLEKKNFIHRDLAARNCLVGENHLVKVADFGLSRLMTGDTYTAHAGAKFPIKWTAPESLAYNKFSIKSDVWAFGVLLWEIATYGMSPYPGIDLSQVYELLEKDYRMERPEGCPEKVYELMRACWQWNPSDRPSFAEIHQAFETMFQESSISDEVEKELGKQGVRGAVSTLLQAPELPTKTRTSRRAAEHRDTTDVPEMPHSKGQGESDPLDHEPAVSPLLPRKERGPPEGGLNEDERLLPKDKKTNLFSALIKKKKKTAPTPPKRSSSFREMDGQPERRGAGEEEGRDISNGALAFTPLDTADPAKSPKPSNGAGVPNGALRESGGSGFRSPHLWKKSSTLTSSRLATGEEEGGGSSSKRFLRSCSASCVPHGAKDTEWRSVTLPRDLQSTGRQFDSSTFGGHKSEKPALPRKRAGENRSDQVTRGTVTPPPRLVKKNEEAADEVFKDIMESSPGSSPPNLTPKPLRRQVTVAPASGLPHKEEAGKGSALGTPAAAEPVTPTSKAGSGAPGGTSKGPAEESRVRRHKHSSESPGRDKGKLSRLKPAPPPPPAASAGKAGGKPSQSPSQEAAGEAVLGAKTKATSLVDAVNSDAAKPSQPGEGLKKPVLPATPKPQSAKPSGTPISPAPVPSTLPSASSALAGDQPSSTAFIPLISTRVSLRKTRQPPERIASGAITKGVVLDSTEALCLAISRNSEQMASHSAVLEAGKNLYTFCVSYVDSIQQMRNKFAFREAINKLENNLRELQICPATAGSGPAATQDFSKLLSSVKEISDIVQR

For the compound `C[C@@H]1COC2NC=NC=C2c2cc(C(=O)Nc3ccc(OC(F)(F)Cl)cc3)cc3nc(C(F)F)n1c23` (some centres unmarked) [Crystal form A of p-tosylate], in [1] (Rat PO 10 mg/kg), the AUC(0-inf) amounted to 2600 ng·h/mL, the highest level (Cmax) was 881 ng/mL, the MRT amounted to 2.86 h and the Tmax turned out to be 1 h. In data set [1] (Rat PO 10 mg/kg), this compound showed a half-life of 3.55 h. Further, in [1] (Rat PO 30 mg/kg), the AUC(0-inf) turned out to be 15600 ng·h/mL, the concentration peaked (Cmax) at 4510 ng/mL, the MRT was determined as 2.97 h and the Tmax stood at 1 h. Moreover, the half-life in data set [1] (Rat PO 30 mg/kg) was 2.71 h. Besides, the F in [2] (beagle dogs, gavage 20 mg/kg, suspension in 0.5% HPMC K4M) is listed as 68.6%. Moreover, in data set [2] (setting [11]), the AUC(0-inf) is 40400 ng·h/mL, the highest level (Cmax) was 5720 ng/mL, the MRT came out at 5.47 h and the Tmax was 1.33 h. Besides, in [2] (setting [11]), the half-life is 5.58 h.
Consider `Cc1ccc(NC(=O)c2ccc(CN3CCN(C)CC3)cc2)cc1Nc1nccc(-c2cccnc2)n1` [Imatinib], for which, in data set [3] (75 mg/kg qd), the T/C is given as 46.92% and the TGI amounted to 56.03%.
Take “(3R)-N-(4-(chlorodifluoromethoxy)phenyl)-2-(difluoromethyl)-3-methyl-3,4,5a,6-tetrahydro-5-oxa-1,2a,6,8-tetraazabenzo[4,5]cyclooctyl[1,2,3-cd]indene-11-carboxamide [crystal form A of the p-tosylate]”: the “crystal form (XRPD pattern) after hygroscopic-dehygroscopic cycles” value in data set [4] (2 cycles at relative humidity of 0-95%) is on record as “remained unchanged”. In [4] (at RH 80%), this compound gave a hygroscopic weight gain of 0.3545%. Moreover, the “stability in a humid environment” value in [4] (conclusion in words) is “stable in a humid environment”. The “pharmacokinetics in rats (in words)” value in [1] (gavage, dose of 30 mg/kg) was “good metabolic properties”. Also, the Crystal form results in data set [5] (Initial (before slurrying)) is listed as “Form A”; in data set [5] (slurried in 2-butanone, room temperature, 2 weeks, XRPD) it was “Form A”; in data set [5] (slurried in 2-methyltetrahydrofuran, room temperature, 2 weeks, XRPD), “Form A”; in data set [5] (slurried in 3-pentanone, room temperature, 2 weeks, XRPD) it was “Form A”; in data set [5] (slurried in Acetone, room temperature, 2 weeks, XRPD) it was “Form A”; in data set [5] (slurried in Acetonitrile, room temperature, 2 weeks, XRPD), “Form A”. Also, the Crystal form results in data set [5] (slurried in Chloroform, room temperature, 2 weeks, XRPD) is “Form A”; in data set [5] (slurried in Dichloromethane, room temperature, 2 weeks, XRPD) it was “Form A”; in [5] (slurried in Ethanol, room temperature, 2 weeks, XRPD), “Form A”; in data set [5] (slurried in Ethyl acetate, room temperature, 2 weeks, XRPD), “Form A”; in [5] (slurried in Ethyl formate, room temperature, 2 weeks, XRPD), “Form A”; in data set [5] (slurried in Isopropanol, room temperature, 2 weeks, XRPD), “Form A”. Also, the Crystal form results was “Form A” in [5] (slurried in Isopropyl acetate, room temperature, 2 weeks, XRPD); “Form A” in data set [5] (slurried in Methanol, room temperature, 2 weeks, XRPD); “Form A” in data set [5] (slurried in Tetrahydrofuran, room temperature, 2 weeks, XRPD); “Form A” in [5] (slurried in Toluene, room temperature, 2 weeks, XRPD); “Form A” in data set [5] (slurried in n-heptane, room temperature, 2 weeks, XRPD). In addition, the “pharmacokinetics in dogs (in words)” value in data set [2] (gavage, 20 mg/kg) is “good metabolic properties, exposure dosage, and significantly improved bioavailability”. Moreover, the “thermodynamic stability among crystal forms of the p-tosylate” value in data set [6] was “the most thermodynamically stable crystal form among these crystal forms”.
In the case of “p-tosylate of (3R)-N-(4-(chlorodifluoromethoxy)phenyl)-2-(difluoromethyl)-3-methyl-3,4,5a,6-tetrahydro-5-oxa-1,2a,6,8-tetraazabenzo[4,5]cyclooctyl[1,2,3-ed]indene-11-carboxamide [Example 1]”, the IC50 was 5.36 nM with Ba/F3 BCR-ABL1-G250E; 46.8 nM with Ba/F3 BCR-ABL1-T315I; 26.3 nM with Ba/F3 BCR-ABL1-E255K; 7.15 nM with Ba/F3 BCR-ABL1-E255V; 4.13 nM in data set [7]; 14.6 nM in data set [8]. Moreover, the IC50 in [9] was determined as 2.99 nM; in data set [10] it was 13 nM; against ABL1 WT kinase, 0.43 nM. Moreover, the T/C in data set [3] (1.5 mg/kg bid) is listed as 7.05%; in [3] (3 mg/kg bid), 0.69%; in [3] (3 mg/kg qd), 3.98%; in [3] (7.5 mg/kg bid), 0.52%. The TGI in data set [3] (1.5 mg/kg bid) is on record as 98.20%; in [3] (3 mg/kg bid), 187.08%; in data set [3] (3 mg/kg qd) it was 127.26%; in data set [3] (7.5 mg/kg bid), 190.62%. Also, the Tumor volume is 143±35 mm^3 in [3] (1.5 mg/kg bid), 14±5 mm^3 in data set [3] (3 mg/kg bid), 81±19 mm^3 in data set [3] (3 mg/kg qd) and 11±7 mm^3 in [3] (7.5 mg/kg bid).

Source of the values: patent publication EP4692095A1, “SALT CRYSTAL FORM OF QUATERNARY FUSED RING COMPOUND, AND PREPARATION METHOD THEREFOR AND USE THEREOF” (Jiangsu Hansoh Pharmaceutical Group Co., Ltd., priority 2023, dated 2024).
